Reference: patent US12350250B2, “Aggrelytes for treating ocular conditions” (The Regents of the University of Colorado, a Body Corporate, priority 2022, dated 2025)

Tests used:
[1] = tested on: acetyllysine (AcK)-bearing proteins in solubilized human lens WI proteins; assay: AcK-bearing proteins in solubilized human lens proteins (Western blot densitometry); format: biochemical; conditions: 500 μM, solubilized proteins of ten human lenses (65 to 75 years), vs Control
Source text: Chemiluminescence was detected using an Enhanced Chemiluminescence Detection Kit (Thermo Scientific). Then the membrane was stained with Ponceau-S to visualize the proteins and normalize the detected AcK-bearing protein to the total protein load via densitometry.

[2] = tested on: β-crystallin (βC); assay: Crystallin levels in solubilized human lens proteins (Western blot), βC; format: biochemical; conditions: 500 μM, solubilized proteins of three human lenses
Description: (§1) The contents of crystalline proteins [αA-crystallin (αAC), αB-crystallin (αBC), β-crystallin (βC), and γ-crystallin (γC)] in the solubilized proteins of three human lenses treated with either Aggrelyte-2 or Aggrelyte-2C (500 μM) from Example 4 were determined by Western blot analysis as described for Example 5. Membranes were incubated with antibodies against αAC (1:14,000 dilution; Enzo Life Sciences, Catalog #ADI-SPA-221D), αBC (1:700,000 dilution; University of Iowa), βC (1:14,000 dilution; Santa Cruz Biotechnology, Catalog #sc-22745), and γC (1:7,000 dilution; Santa Cruz Biotechnology, Catalog #sc-22746). The secondary antibodies were HRP-conjugated anti-mouse IgG for αBC and HRP-conjugated […] (Cell Signaling Technology, Catalog #7074S) for αAC, βC, and γC. According to the supplier, the […] detects mostly βB1-crystallin and, to a lesser extent, βA1/3, βA2, βA4, βB2, and βB3-crystallin. The γC antibody reacts with γA, γB, γC, γD, γE, and γF-crystallin.

[3] = tested on: protein thiols of solubilized human lens WI protein; assay: Protein thiol content in solubilized protein from WI protein of aged lenses; format: biochemical; conditions: 500 μM aggrelyte, lenses 58 to 69 years old; for thiol content: 10 μg protein, GSH standard
Description: Protein thiol content in the solubilized protein from WI protein from aged lenses (58 to 69 years old) was evaluated. Immediately after treatment with aggrelytes as described in the foregoing examples, 0.15 mL samples were filtered through 10 kDa cutoff centrifugal filters at 4° C. Centrifugal filtration was repeated twice by adding 0.4 mL of 50 mM N2-bubbled sodium phosphate buffer to the retentate each time. Ten micrograms of protein from the final retentate was used for thiol content estimation using a Thiol Quantification Assay Kit (Abcam, Cambridge, MA) using reduced GSH as the standard.

[4] = tested on: mouse lenses; assay: Stiffness and axial strain of ex vivo mouse lenses (Example 10); set-up: species or system mouse (C57BL/6J); conditions: 1 mM, 24 hours, 100 mg load
Description: In this example, the lenses were dissected from the eyes of mice (C57BL/6J, 5-8 months old, Jackson Laboratories, Stock No. 000664, n=4-5) by a posterior approach and incubated without (“Control”) or with Aggrelyte-2 or Aggrelyte-2C (1 mM) for 24 hours in serum-free and phenol-red-free MEM (297 mOsm) at 37° C. Lens stiffness was measured as previously described in Baradia, H. et al., (2010) Exp. Eye Res. 91, 300-307. Briefly, the lens was placed on a flat platform with the anterior side facing up, and a load was applied to the top of the lens at 100 mg increments for mouse lenses and at 250 mg increments for human lenses. The displacement in the lens axial diameter (in μm or mm) was measured using MATLAB software developed by Dr. Adrian Glasser, UK, and plotted against the load applied. The displacement at a specific load was used to determine differences in lens stiffness between the untreated control and aggrelyte-treated lenses.
Freshly obtained human lenses (42-68 years old, n=10-12) were incubated with or without Aggrelyte-2 or Aggrelyte-2C (1 mM) for a total of 72 h in phenol red-free MEM with a change in media containing freshly dissolved aggrelytes every 24 h. One lens from each donor pair was used as the control, and the other was treated with aggrelyte. After incubation, the lens stiffness was measured as described above. Axial strain was also calculated based on the following formula: […]

[5] = tested on: human lenses; assay: Water-soluble (WS) protein content of aggrelyte-treated human lenses; conditions: 1 mM, 72 h
Description: Water soluble (WS) proteins were obtained from both mouse and human lenses. For mouse lenses, WS protein was obtained by homogenizing each mouse lens in 0.2 mL of PBS, followed by centrifugation at 20,000×g for 20 min at 4° C. […] The remaining nucleus was homogenized in 1 mL phosphate buffer. Both cortical and nuclear protein extracts were centrifuged at 20,000×g for 20 min at 4° C. to obtain the soluble protein in the supernatant. In another set of experiments, human lenses (42-64 years), following incubation with aggrelytes as described in the foregoing examples, were each homogenized with 1.5 mL 50 mM phosphate buffer, pH 7.4. The homogenate was centrifuged at 20,000×g for 20 min to obtain a supernatant. Protein in the supernatant was evaluated to determine the effect of aggrelyte treatment on the soluble protein content in the lens.

[6] = tested on: human (60-62 years) lens; assay: Human lens transparency (separate study); conditions: data not shown
Source text: The reduction in stiffness was similar at 400- and 500-mg loads (FIGS. 21C and 21D, respectively).

[7] = target: T1, αA-crystallin (αAC) (Homo sapiens, UniProt P02489); assay: Relative protein acetylation capability on recombinant αAC; format: biochemical; conditions: 500 μM acetylating agent, αAC 3 mg/mL, 24 hours, 37° C.
T1 sequence (P02489 1-173): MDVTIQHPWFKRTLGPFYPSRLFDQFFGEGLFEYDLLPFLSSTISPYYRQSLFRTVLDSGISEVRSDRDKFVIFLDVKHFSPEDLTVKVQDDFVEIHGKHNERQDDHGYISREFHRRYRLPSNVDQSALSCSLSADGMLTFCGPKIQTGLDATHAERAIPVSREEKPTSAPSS
Description: The relative ability of Aggrelyte-2 to acetylate lysine residues in proteins was investigated using αA-crystallin (αAC). Human recombinant αAC (3 mg/mL PBS) was incubated in 50 mM sodium phosphate buffer, pH 7.4, for 24 hours at 37° C. while shaking without or with 500 μM acetylating agent (Aggrelyte-2, acetyl-CoA, acetic anhydride, or aspirin), dialyzed against PBS for 24 hours at 4° C.

[8] = tested on: αB-crystallin (αBC); assay: Crystallin levels in solubilized human lens proteins (Western blot), αBC; format: biochemical; conditions: 500 μM, solubilized proteins of three human lenses; not significant
Description: as §1

| Compound | amount of AcK-bearing proteins (Western blot densitometry) [1] | levels of βC vs Controls [2] | thiol content [3] | thiol content, fold higher than in the untreated controls [3] | thiol content, fold increase over Aggrelyte-2-treated samples [3] | axial strain vs controls ([4]; mouse lenses) | WS content, % higher than in the untreated controls (contralateral lenses) [5] | lens transparency compared to vehicle-treated lenses [6] | rank order of acetylating agents [7] | levels of αBC, fold higher than in the Aggrelyte-2C-treated samples [8] | levels of αBC, fold higher than in the Controls [8] | lens stiffness vs untreated control lenses ([4]; 6-month-old mouse lenses) | displacement, % greater than that by Aggrelyte-2C ([4]; mouse lenses, not significantly greater) |
| --- | --- | --- | --- | --- | --- | --- | --- | --- | --- | --- | --- | --- | --- |
| COC(=O)[C@H](CS)NC(C)=O [Aggrelyte-2C, N-acetyl-L-cysteine methyl ester] | did not increase the AcK levels | no effect | 1.1 to 1.6 µM | 4.9 fold | 2.6 fold | did not have a significant effect | 4.6% | did not reduce or otherwise change | – | – | – | – | – |
| COC(=O)[C@H](CSC(C)=O)NC(C)=O [Aggrelyte-2, N,S-diacetyl-L-cysteine methyl ester] | significantly (p<0.001) increased | slightly but not significantly higher | 0.3 to 0.7 µM | 1.9 fold | – | significantly (p<0.05) reduced the axial strain | 13.2% | did not reduce or otherwise change | followed by Aggrelyte-2, aspirin, and acetyl-CoA | 1.1 fold | 1.2 fold | significantly (p<0.05) reduced the stiffness | 8.7% |
